Where a SMILES comes first, the peptide text is derived from it. Bridges are numbered along the chain shown (N, C = ends). [ ]: non-standard residue; d: D form. R8 = C=CCCCCCC[C@@](C)(N)C(=O)O; R5 = C=CCCC[C@@](C)(N)C(=O)O; S5 = C=CCCC[C@](C)(N)C(=O)O
Legend:
[1] = circular dichroism; settings: 10 mM phosphate; pH 7.5; 25 °C; 50 uM
[2] = biological target: monomeric N protein (N^mono), recombinant N^K170A/R185A (Human respiratory syncytial virus A, UniProt P03418, K170A/R185A); assay: Fluorescence polarization competition assay: displacement of FAM–P(1–40) from monomeric N; type: binding; settings: FP competition with FAM–P(1–40) probe
monomeric N protein (N^mono), recombinant N^K170A/R185A, sequence (P03418 whole entry K170A/R185A, looked up): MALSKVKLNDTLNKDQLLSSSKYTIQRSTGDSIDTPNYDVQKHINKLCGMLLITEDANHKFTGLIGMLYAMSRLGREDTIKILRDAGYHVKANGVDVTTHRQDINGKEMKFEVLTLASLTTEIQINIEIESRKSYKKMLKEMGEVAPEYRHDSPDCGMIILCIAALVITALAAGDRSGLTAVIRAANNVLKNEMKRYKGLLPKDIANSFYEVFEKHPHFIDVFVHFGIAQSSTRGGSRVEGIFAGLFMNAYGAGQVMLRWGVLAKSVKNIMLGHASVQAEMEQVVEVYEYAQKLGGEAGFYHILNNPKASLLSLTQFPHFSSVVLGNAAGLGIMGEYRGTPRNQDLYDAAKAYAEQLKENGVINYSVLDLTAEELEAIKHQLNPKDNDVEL

[3] = Circular dichroism spectroscopy, α-helical content; type: physicochemical; settings: CD, 10 mM phosphate buffer pH 7.5, 50 μM peptide, 25°C, calculated from ellipticity at 222 nm; average of three measurements
Procedure: The α-helical stabilization appeared to be higher for the i, i + 7 staples overall.
The circular dichroism spectra were acquired on a Chirascan spectropolarimeter. The samples were prepared in 10 mM phosphate buffer, pH 7.5, at a peptide concentration of 50 μM. Data were recorded at 25°C by step scan from 180 nm to 260 nm in a 0.5-mm-pathlength quartz cell using 0.2-nm-wavelength increments, a 1-nm bandwidth, and a response time of 1 s. Each spectrum was an average of three measurements and was subtracted from the buffer baseline. The data were converted to per residue molar ellipticity units (θ; in degrees · square centimeters · decimoles^−1 · number of residues^−1) and smoothed using Igor Pro software. Percent helicity was calculated as follows: (100 × CD222)/(C × N × {40,000 × [1 − (2.5/N)]}), where CD222 is the molar ellipticity (θ) at 222 nm (in millidegrees), N is the number of amino acids in the peptide, and C is the peptide molar concentration (in moles per liter).

[4] = tested on: rHRSV-mCherry; settings: read-out: EC50 (half-maximal response inhibitory concentration), inhibition of RSV infection; HEp-2 cells, MOI 0.2, peptides added after 2 h infection, mCherry fluorescence at 48 h postinfection; duplicates
[5] = tested on: BALB/c mice; assay: In vivo toxicity assessment in uninfected BALB/c mice
[6] = tested on: HEp-2 cells; assay: HEp-2 cell viability (CellTiter-Glo luminescent cell viability assay); settings: peptide alone at 50 μM; duplicates
Procedure: (B) HEp-2 cell viability upon treatment with peptides alone at peptide concentrations of 50, 25, and 12.5 μM. Error bars are standard deviations from duplicates. Data are representative of those from two independent experiments.
Cytotoxicity assays were done with the CellTiter-Glo luminescent cell viability assay (Promega). Each experiment was performed in duplicate and repeated at least twice.

[7] = tested on: rHRSV-Luc; assay: Mouse RSV infection model (rHRSV-Luc, bioluminescence, lung histology)
[8] = 2 dpi, one i.n. treatment 50 μl at 215 μM, 1 × 10^5 PFU rHRSV-Luc, n = 5
[9] = 4 dpi, i.n. treatment at day 0 and 2 dpi, n = 5, Mann-Whitney test

SMILES	helicity [1] [%]	Competitive binding to N^mono (in words) [2]	% helicity [3] [%]	EC50 [4] [µM]	Toxicity for uninfected HEp-2 cells (cell viability) [6]	also measured
CC[C@H](C)[C@H](NC(=O)[C@H](CO)NC(=O)[C@H](CCC(=O)O)NC(=O)[C@H](CC(C)C)NC(=O)[C@H](Cc1ccccc1)NC(=O)[C@H](CCCCN)NC(=O)[C@]1(C)CCCC=CCCC[C@@](C)(NC(=O)[C@H](CC(N)=O)NC(=O)[C@H](C)NC(=O)[C@H](CC(=O)O)NC(=O)[C@H](CCC(=O)O)NC(C)=O)C(=O)N[C@@H](CCCCN)C(=O)N[C@@H](C)C(=O)N1)C(=O)N[C@@H](CCCCN)C(=O)NCC(=O)N[C@@H](CCCCN)C(=O)N[C@@H](Cc1ccccc1)C(=O)N[C@@H](C)C(=O)N[C@@H](CO)C(N)=O [1a] (Ac-EDAN[R5]KA[S5]KFLESIKGKFAS-NH2; staple 5-8)	5.5	detrimental to the binding	5.5			
CC(=O)N[C@@H](CCC(=O)O)C(=O)N[C@@H](CC(=O)O)C(=O)N[C@@H](C)C(=O)N[C@@H](CC(N)=O)C(=O)N[C@@H](CC(N)=O)C(=O)N[C@@H](CCCCN)C(=O)N[C@@H](C)C(=O)N[C@H](C(=O)N[C@@H](CCCCN)C(=O)N[C@@H](Cc1ccccc1)C(=O)N[C@]1(C)CCCC=CCCC[C@@](C)(C(=O)N[C@@H](CCCCN)C(=O)NCC(=O)N[C@@H](CCCCN)C(=O)N[C@@H](Cc2ccccc2)C(=O)N[C@@H](C)C(=O)N[C@@H](CO)C(N)=O)NC(=O)[C@H](CO)NC(=O)[C@H](CCC(=O)O)NC1=O)[C@@H](C)O [1d] (Ac-EDANNKATKF[R5]ES[S5]KGKFAS-NH2; staple 11-14)	24.2	no competition could be observed	24.2			
CC[C@H](C)[C@H](NC(=O)[C@H](CO)NC(=O)[C@H](CCC(=O)O)NC(=O)[C@H](CC(C)C)NC(=O)[C@H](Cc1ccccc1)NC(=O)[C@H](CCCCN)NC(=O)[C@@H](NC(=O)[C@H](C)NC(=O)[C@H](CCCCN)NC(=O)[C@H](CC(N)=O)NC(=O)[C@H](CC(N)=O)NC(=O)[C@H](C)NC(=O)[C@H](CC(=O)O)NC(=O)[C@H](CCC(=O)O)NC(C)=O)[C@@H](C)O)C(=O)N[C@@H](CCCCN)C(=O)NCC(=O)N[C@]1(C)CCCC=CCCC[C@@](C)(C(N)=O)NC(=O)[C@H](C)NC(=O)[C@H](Cc2ccccc2)NC1=O [1g] (Ac-EDANNKATKFLESIKG[R5]FA[S5]-NH2; staple 17-20)	25.5	detrimental to the binding	25.5			
CC(=O)N[C@@H](CCC(=O)O)C(=O)N[C@@H](CC(=O)O)C(=O)N[C@@H](C)C(=O)N[C@@H](CC(N)=O)C(=O)N[C@@H](CC(N)=O)C(=O)N[C@@H](CCCCN)C(=O)N[C@@H](C)C(=O)N[C@H](C(=O)N[C@@H](CCCCN)C(=O)N[C@@]1(C)CCCC=CCCC[C@@](C)(C(=O)N[C@@H](CCCCN)C(=O)NCC(=O)N[C@@H](CCCCN)C(=O)N[C@@H](Cc2ccccc2)C(=O)N[C@@H](C)C(=O)N[C@@H](CO)C(N)=O)NC(=O)[C@H](CO)NC(=O)[C@H](CCC(=O)O)NC(=O)[C@H](CC(C)C)NC1=O)[C@@H](C)O [2d] (Ac-EDANNKATK[S5]LES[S5]KGKFAS-NH2; staple 10-14)	10.1	no competition could be observed	10.1			
CC[C@H](C)[C@H](NC(=O)[C@]1(C)CCCC=CCCCCCC[C@@](C)(NC(=O)[C@H](CC(N)=O)NC(=O)[C@H](CC(N)=O)NC(=O)[C@H](C)NC(=O)[C@]2(C)CCCC=CCCC[C@@](C)(NC(=O)[C@H](Cc3ccccc3)NC(=O)[C@H](CCC(=O)O)NC(C)=O)C(=O)NCC(=O)N[C@@H](CCC(=O)O)C(=O)N2)C(=O)N[C@@H](C)C(=O)N[C@@H]([C@@H](C)O)C(=O)N[C@@H](CCCCN)C(=O)N[C@@H](Cc2ccccc2)C(=O)N[C@@H](CC(C)C)C(=O)N[C@@H](CCC(=O)O)C(=O)N1)C(=O)N[C@@H](CCCCN)C(=O)NCC(=O)N[C@@H](CCCCN)C(=O)N[C@@H](Cc1ccccc1)C(=O)N[C@@H](C)C(=O)N[C@@H](CO)C(N)=O [4a3b] (Ac-EF[R5]GE[S5]ANN[R8]ATKFLE[S5]IKGKFAS-NH2; staple 3-6, 10-17)		inactive	73.2	14.6 ± 13.9		
CC[C@H](C)[C@H](NC(=O)[C@]1(C)CCCC=CCCCCCC[C@@](C)(NC(=O)[C@H](CCC(=O)O)NC(=O)[C@H](CC(N)=O)NC(=O)[C@H](C)NC(=O)[C@]2(C)CCCC=CCCC[C@@](C)(NC(=O)[C@H](Cc3ccccc3)NC(=O)[C@H](CCC(=O)O)NC(C)=O)C(=O)NCC(=O)N[C@@H](CCC(=O)O)C(=O)N2)C(=O)N[C@@H](C)C(=O)N[C@@H]([C@@H](C)O)C(=O)N[C@@H](CCCCN)C(=O)N[C@@H](Cc2ccccc2)C(=O)N[C@@H](CC(C)C)C(=O)N[C@@H](CCC(=O)O)C(=O)N1)C(=O)N[C@@H](CCCCN)C(=O)N[C@@H](CCCCN)C(=O)N[C@@H](CCCCN)C(=O)N[C@@H](Cc1ccccc1)C(=O)N[C@@H](C)C(=O)N[C@@H](CO)C(N)=O [5a] (Ac-EF[R5]GE[S5]ANE[R8]ATKFLE[S5]IKKKFAS-NH2; staple 3-6, 10-17)			>100	18.4 ± 9.3	no toxicity	Animals with focal lesions of the pulmonary parenchyma with infiltration by neutrophils (histology) ([5]; BALB/c mice n = 5, i.n. 50 μl at 215 μM at days 0 and 2, day 4, HES staining): 3 of the 5; Macroscopic lung examination ([5]; BALB/c mice n = 5, i.n. 50 μl at 215 μM at days 0 and 2, lungs collected at day 4): no macroscopic sign of toxicity; Body weight monitoring, signs of toxicity ([5]; BALB/c mice n = 5, i.n. 50 μl at 215 μM in PBS at days 0 and 2, days 0 to 4): did not reveal any signs of toxicity; Reduction in the level of RSV replication in the noses versus untreated mice [7, 8]: 2 fold; Whole luminescence signal versus untreated infected mice [7, 8]: no significant difference; Intensity of interstitial pneumonia (lung histology) ([7]; 4 dpi, HES staining, versus RSV-infected PBS mice): decreased; Animals with vascular and bronchial lesions (lung histology) ([7]; 4 dpi, HES staining, all 5 untreated infected animals showed lesions): 2 out of 5; Amount of bioluminescence versus untreated control group [7, 9]: significant reduction; Bioluminescence in the lungs versus untreated RSV-infected mice [7, 9]: significantly reduced; Body weight of RSV-infected treated animals ([7]; daily monitoring, i.n. treatment at day 0 and 2 dpi, n = 5): statistically nonsignificant loss of weight
CC[C@H](C)[C@H](NC(=O)[C@]1(C)CCCC=CCCCCCC[C@@](C)(NC(=O)[C@H](CCC(=O)O)NC(=O)[C@H](CC(N)=O)NC(=O)[C@H](C)NC(=O)[C@]2(C)CCCC=CCCC[C@@](C)(NC(=O)[C@H](Cc3ccccc3)NC(=O)[C@H](CCC(=O)O)NC(C)=O)C(=O)NCC(=O)N[C@@H](CCC(=O)O)C(=O)N2)C(=O)N[C@@H](C)C(=O)N[C@@H]([C@@H](C)O)C(=O)N[C@@H](CCCCN)C(=O)N[C@@H](Cc2ccccc2)C(=O)N[C@@H](CC(C)C)C(=O)N[C@@H](C)C(=O)N1)C(=O)N[C@@H](CCCCN)C(=O)NCC(=O)N[C@@H](CCCCN)C(=O)N[C@@H](Cc1ccccc1)C(=O)N[C@@H](C)C(=O)N[C@@H](CO)C(N)=O [5b] (Ac-EF[R5]GE[S5]ANE[R8]ATKFLA[S5]IKGKFAS-NH2; staple 3-6, 10-17)			>100	16.9 ± 5.1	some toxicity	
CC[C@H](C)[C@H](NC(=O)[C@]1(C)CCCC=CCCCCCC[C@@](C)(NC(=O)[C@H](CC(N)=O)NC(=O)[C@H](CC(N)=O)NC(=O)[C@H](C)NC(=O)[C@]2(C)CCCC=CCCC[C@@](C)(NC(=O)[C@H](Cc3ccccc3)NC(=O)[C@H](CCC(=O)O)NC(C)=O)C(=O)NCC(=O)N[C@@H](CCC(=O)O)C(=O)N2)C(=O)N[C@@H](C)C(=O)N[C@@H]([C@@H](C)O)C(=O)N[C@@H](CCC(=O)O)C(=O)N[C@@H](Cc2ccccc2)C(=O)N[C@@H](CC(C)C)C(=O)N[C@@H](CCCCN)C(=O)N1)C(=O)N[C@@H](CCCCN)C(=O)NCC(=O)N[C@@H](CCCCN)C(=O)N[C@@H](Cc1ccccc1)C(=O)N[C@@H](C)C(=O)N[C@@H](CO)C(N)=O [5c] (Ac-EF[R5]GE[S5]ANN[R8]ATEFLK[S5]IKGKFAS-NH2; staple 3-6, 10-17)			79.7	18.5 ± 10.6	no toxicity	

Source: PMC7508628, “Targeting the Respiratory Syncytial Virus N^0-P Complex with Constrained α-Helical Peptides in Cells and Mice” (Antimicrobial Agents and Chemotherapy, 2020)
